According to ChEMBL document CHEMBL5728935, “Heterocycles useful as anti-cancer agents” (2022):

Legend:
CDK2/Cyclin A2 = CDK2/Cyclin A2 (Homo sapiens, UniProt P24941); assay: (§1) Kinase Assay: In vitro enzymatic activity of the CDK isoforms CDK2/CycA2, CDK4/CycD3 and CDK6/cycD3 were measured using Mobility Shift Assay that monitors phosphorylation ratio of FAM labelled peptide (Peptide 18 for CDK2/CycA2, Peptide 8 for CDK4/CycD3 and CDK6/cycD3). CDK2/CycA2 and CDK6/cycD3 were assayed under buffer conditions in the presence of 50 mM HEPES (pH 7.5), 10 mM MgCl2, 0.0015% Brij-35, and 2 mM dithiothreitol, CDK4/CycD3 with buffer condition of 20 mM HEPES (pH 7.5), 10 mM MgCl2, 0.01% Triton X-100, and 2 mM dithiothreitol. Prepare compounds to 50× of the final desired highest inhibitor concentration by 100% DMSO and serial dilution in 3-fold for total of 10 concentrations. […] After assay for 60 min, 180 min, 60 min respectively at 28° C., reactions were terminated with stop solution (50 mM EDTA, 0.015% Brij-35, 0.2% Coating Reagent #3 and 100 mM HEPES (pH 7.5)). Collect conversion on Caliper EZ Reader.; format: protein-complex assay
CDK4/Cyclin D3 = CDK4/Cyclin D3 (Homo sapiens, UniProt P11802+P30281); assay: as §1; format: protein-complex assay
CDK4/Cyclin D3, sequence (P11802 whole entry): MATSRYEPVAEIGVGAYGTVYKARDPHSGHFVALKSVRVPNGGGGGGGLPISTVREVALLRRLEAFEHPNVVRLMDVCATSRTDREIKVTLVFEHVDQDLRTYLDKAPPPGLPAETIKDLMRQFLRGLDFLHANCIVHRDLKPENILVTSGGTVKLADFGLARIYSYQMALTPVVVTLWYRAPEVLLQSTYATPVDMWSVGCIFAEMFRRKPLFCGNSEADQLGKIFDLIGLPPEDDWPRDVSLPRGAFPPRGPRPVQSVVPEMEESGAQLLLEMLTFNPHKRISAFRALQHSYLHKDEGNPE
CDK4/Cyclin D3, sequence (P30281 whole entry): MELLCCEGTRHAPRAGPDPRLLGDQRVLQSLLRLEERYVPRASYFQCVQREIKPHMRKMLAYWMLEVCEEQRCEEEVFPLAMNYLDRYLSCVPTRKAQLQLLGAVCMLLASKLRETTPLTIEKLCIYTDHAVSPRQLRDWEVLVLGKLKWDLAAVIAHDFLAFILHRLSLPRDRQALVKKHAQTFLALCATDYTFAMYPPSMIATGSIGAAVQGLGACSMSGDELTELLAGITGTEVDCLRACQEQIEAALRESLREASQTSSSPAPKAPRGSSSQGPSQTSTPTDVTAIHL

| IC50 (CDK2/Cyclin A2) | IC50 (CDK4/Cyclin D3) | SMILES |
| --- | --- | --- |
| < 0.01 µM |  | CC(=O)c1c(C)c2cnc(Nc3ccc4c(c3)OC[C@@H]3CNCCN43)nc2n(C2CCCC2)c1=O |
|  | < 0.1 µM | CC(=O)c1c(C)c2cnc(Nc3ccc(N4CC5CNCC(C4)C5(F)F)cn3)nc2n(C2CCCC2)c1=O |
| < 0.01 µM |  | CC(=O)c1c(C)c2cnc(Nc3ccc4c(c3)OC[C@H]3CNCCN43)nc2n(C2CCCC2)c1=O |
